This is an account of results in US20040224958A1, “Pyridopyrimidinone derivatives for treatment of neurodegenerative disease” (priority 2000, published 2004).

One experiment concerns the target cdk4/D (Homo sapiens, UniProt P11802). Kind of experiment: Cyclin-Dependent Kinase 4 (cdk4) Assay. The following applies: read-out: cdk4/D IC50. Format: biochemical.
A further experiment addresses Cdk5/p25 (Homo sapiens, UniProt Q00535). As to the kind of experiment: Cyclin-Dependent Kinase 5 High Throughput Screening (cdk5-HTS) Assay. The following applies: high throughput screen. It is filed as biochemical. The gist of the method: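 Cdk5/p25 (1.0 μg/mL) phosphorylates GST-RbCOOH (20 μg/mL) in 50 mM Tris pH 7.4 with 10 mM MgCl2 and 20 μM ATP spiked with [γ33P]ATP, 30 min at room temperature. After EDTA stop, substrate captured on glutathione-coated plates; 33P incorporation counted by scintillation; IC50 determined.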

The target of another experiment is cdk2/cyclinE (Homo sapiens, UniProt P24941). Kind of experiment: Cyclin-Dependent Kinase Assay cdk2/cyclinE. The following applies: cdk2/E IC50.
The next experiment addresses cdk2/cyclinA (Homo sapiens, UniProt P24941). As to the kind of experiment: Cyclin-Dependent Kinase Assay cdk2/cyclinA. The following applies: cdk2/A IC50.
Another experiment has as its target cdc2/cyclinB (Homo sapiens, UniProt P06493). Kind of experiment: Cyclin-Dependent Kinase Assay cdc2/cyclinB.

cdk4/D, sequence (P11802 whole entry): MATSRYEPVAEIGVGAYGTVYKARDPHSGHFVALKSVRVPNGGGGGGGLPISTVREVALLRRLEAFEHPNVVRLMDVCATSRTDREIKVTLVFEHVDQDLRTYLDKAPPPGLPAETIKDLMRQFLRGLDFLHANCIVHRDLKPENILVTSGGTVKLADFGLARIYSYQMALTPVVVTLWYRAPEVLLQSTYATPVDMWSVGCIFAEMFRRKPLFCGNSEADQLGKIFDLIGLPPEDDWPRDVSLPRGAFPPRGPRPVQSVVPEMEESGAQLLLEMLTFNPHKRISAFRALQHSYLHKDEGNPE
cdk4/D, sequence (P24385 whole entry, further chain): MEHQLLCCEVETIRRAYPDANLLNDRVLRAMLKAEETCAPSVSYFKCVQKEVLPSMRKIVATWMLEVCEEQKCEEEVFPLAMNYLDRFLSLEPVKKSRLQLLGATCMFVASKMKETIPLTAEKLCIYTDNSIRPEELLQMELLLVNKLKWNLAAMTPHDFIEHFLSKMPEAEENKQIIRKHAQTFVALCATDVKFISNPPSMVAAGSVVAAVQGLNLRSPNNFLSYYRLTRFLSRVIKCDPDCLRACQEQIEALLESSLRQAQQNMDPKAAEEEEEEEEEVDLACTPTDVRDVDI
cdc2/cyclinB, sequence (P06493 whole entry): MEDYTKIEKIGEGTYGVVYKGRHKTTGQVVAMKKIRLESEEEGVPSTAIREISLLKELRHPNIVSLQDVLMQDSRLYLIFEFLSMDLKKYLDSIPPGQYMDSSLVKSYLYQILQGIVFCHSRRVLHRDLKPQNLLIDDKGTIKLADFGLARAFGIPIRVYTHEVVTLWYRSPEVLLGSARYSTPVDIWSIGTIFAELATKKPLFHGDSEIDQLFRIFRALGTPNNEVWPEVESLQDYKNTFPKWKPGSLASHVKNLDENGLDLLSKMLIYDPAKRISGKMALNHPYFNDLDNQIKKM
cdc2/cyclinB, sequence (P14635 whole entry, further chain): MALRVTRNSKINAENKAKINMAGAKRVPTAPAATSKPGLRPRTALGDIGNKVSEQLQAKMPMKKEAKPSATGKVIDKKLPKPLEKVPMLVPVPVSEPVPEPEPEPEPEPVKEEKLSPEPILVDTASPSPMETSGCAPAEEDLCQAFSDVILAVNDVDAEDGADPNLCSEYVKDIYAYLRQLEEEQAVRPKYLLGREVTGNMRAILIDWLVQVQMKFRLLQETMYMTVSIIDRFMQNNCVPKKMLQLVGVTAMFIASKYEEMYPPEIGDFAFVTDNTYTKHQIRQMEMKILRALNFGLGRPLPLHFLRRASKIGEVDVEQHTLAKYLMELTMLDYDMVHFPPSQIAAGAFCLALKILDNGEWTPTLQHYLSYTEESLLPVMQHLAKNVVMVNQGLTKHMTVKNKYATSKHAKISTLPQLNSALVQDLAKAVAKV

Regarding `CC(=O)Nc1cc(Nc2ncc3ccc(=O)n(C(C)C)c3n2)ccc1C` [Example 440, N-[5-(8-Isopropyl-7-oxo-7,8-dihydro-pyrido[2,3-d]pyrimidin-2-ylamino)-2-methyl-phenyl]-acetamide], the IC50 was found to be 150 nM at cdk4/D; 440 nM at Cdk5/p25; 1500 nM on cdk2/cyclinE; 1100 nM against cdk2/cyclinA; 1400 nM at cdc2/cyclinB.

In the case of `Cc1cc(Nc2ncc3ccc(=O)n(C(C)C)c3n2)cc(C)c1O` [Example 441, 2-(4-Hydroxy-3,5-dimethyl-phenylamino)-8-isopropyl-8H-pyrido[2,3-d]pyrimidin-7-one], the IC50 on cdk4/D was 890 nM; against Cdk5/p25, 150 nM; against cdk2/cyclinE, 470 nM; against cdk2/cyclinA it was 290 nM; on cdc2/cyclinB, 290 nM.

As to `Cc1cc(Nc2ncc3ccc(=O)n(C(C)C)c3n2)ccc1Br` [Example 442, 2-(4-Bromo-3-methyl-phenylamino)-8-isopropyl-8H-pyrido[2,3-d]pyrimidin-7-one], the IC50 stood at 3600 nM on cdk4/D; 440 nM at Cdk5/p25; 3600 nM at cdk2/cyclinE; 1700 nM against cdk2/cyclinA; 1900 nM on cdc2/cyclinB.

Regarding `CC(C)n1c(=O)ccc2cnc(Nc3ccc(C(F)(F)F)cc3)nc21` [Example 443, 8-Isopropyl-2-(4-trifluoromethyl-phenylamino)-8H-pyrido[2,3-d]pyrimidin-7-one], the IC50 on cdk4/D worked out at 320 nM; at Cdk5/p25 it was 71 nM; against cdk2/cyclinE, 170 nM; against cdk2/cyclinA it was 200 nM; against cdc2/cyclinB, 520 nM.

For `CC(C)n1c(=O)ccc2cnc(Nc3ccc(OC(F)(F)F)cc3)nc21` [Example 444, 8-Isopropyl-2-(4-trifluoromethoxy-phenylamino)-8H-pyrido[2,3-d]pyrimidin-7-one], the IC50 turned out to be 360 nM on cdk4/D; 63 nM on Cdk5/p25; 710 nM on cdk2/cyclinE; 75 nM on cdk2/cyclinA; 530 nM on cdc2/cyclinB.

Consider `CCC(C)n1c(=O)ccc2cnc(Nc3ccccc3)nc21` (stereo not drawn) [Example 446, 8-sec-Butyl-2-phenylamino-8H-pyrido[2,3-d]pyrimidin-7-one], for which the IC50 on cdk4/D came to 168 nM; against Cdk5/p25, 74.5 nM; against cdk2/cyclinE, 177 nM; against cdk2/cyclinA, 215 nM; against cdc2/cyclinB, 340 nM.

Regarding `CCC(C)n1c(=O)ccc2cnc(Nc3ccc4[nH]ccc4c3)nc21` (stereo not drawn) [Example 447, 8-sec-Butyl-2-(1H-indol-5-ylamino)-8H-pyrido[2,3-d]pyrimidin-7-one], the IC50 stood at 44.5 nM at cdk4/D; 19 nM against Cdk5/p25; 60.7 nM against cdk2/cyclinE; 145 nM against cdk2/cyclinA; 89.5 nM against cdc2/cyclinB.

As for `CCC(C)n1c(=O)ccc2cnc(Nc3ccc4[nH]ncc4c3)nc21` (stereo not drawn) [Example 448, 8-sec-Butyl-2-(1H-indazol-5-ylamino)-8H-pyrido[2,3-d]pyrimidin-7-one], the IC50 on cdk4/D turned out to be 46 nM; against Cdk5/p25 it was 8.5 nM; against cdk2/cyclinE, 20 nM; against cdk2/cyclinA, 52 nM; against cdc2/cyclinB it was 26.5 nM.

In the case of `CCC(C)n1c(=O)ccc2cnc(Nc3ccc4[nH]nnc4c3)nc21` (stereo not drawn) [Example 449, 2-(1H-Benzotriazol-5-ylamino)-8-sec-butyl-8H-pyrido[2,3-d]pyrimidin-7-one], the IC50 was found to be 128 nM at cdk4/D; 7.8 nM at Cdk5/p25; 17.3 nM at cdk2/cyclinE; 41 nM at cdk2/cyclinA; 77.5 nM on cdc2/cyclinB.

As for `CCC(C)n1c(=O)ccc2cnc(Nc3ccc(NC(=O)OC(C)(C)C)cc3)nc21` (stereo not drawn) [Example 450, [4-(8-sec-Butyl-7-oxo-7,8-dihydro-pyrido[2,3-d]pyrimidin-2-ylamino)-phenyl]-carbamic acid tert-butyl ester], the IC50 came to 113 nM on cdk4/D; 64.5 nM at Cdk5/p25; 130 nM at cdk2/cyclinE; 265 nM against cdk2/cyclinA; 140 nM against cdc2/cyclinB.

As for `CCC(C)n1c(=O)ccc2cnc(Nc3ccc(O)cc3F)nc21` (stereo not drawn) [Example 451, 8-sec-Butyl-2-(2-fluoro-4-hydroxy-phenylamino)-8H-pyrido[2,3-d]pyrimidin-7-one], the IC50 on cdk4/D was 450 nM; against Cdk5/p25, 133 nM; on cdk2/cyclinE, 240 nM; against cdk2/cyclinA, 555 nM; at cdc2/cyclinB, 590 nM.

Turning to `CCC(C)n1c(=O)ccc2cnc(Nc3ccc(O)c(Cl)c3)nc21` (stereo not drawn) [Example 452, 8-sec-Butyl-2-(3-chloro-4-hydroxy-phenylamino)-8H-pyrido[2,3-d]pyrimidin-7-one], the IC50 was found to be 114 nM at cdk4/D; 13 nM against Cdk5/p25; 22 nM on cdk2/cyclinE; 40 nM against cdk2/cyclinA; 25.5 nM at cdc2/cyclinB.

On to `CCC(C)n1c(=O)ccc2cnc(Nc3cccc([N+](=O)[O-])c3)nc21` (stereo not drawn) [Example 453, 8-sec-Butyl-2-(3-nitro-phenylamino)-8H-pyrido[2,3-d]pyrimidin-7-one], for which the IC50 at cdk4/D is 330 nM; at Cdk5/p25, 37 nM; at cdk2/cyclinE, 52.7 nM; at cdk2/cyclinA it was 105 nM; against cdc2/cyclinB, 51.5 nM.

Turning to `CCC(C)n1c(=O)ccc2cnc(Nc3ccc(OC)c(OC)c3)nc21` (stereo not drawn) [Example 454, 8-sec-Butyl-2-(3,4-dimethoxy-phenylamino)-8H-pyrido[2,3-d]pyrimidin-7-one], the IC50 was 262 nM at cdk4/D; 21.5 nM at Cdk5/p25; 68.3 nM on cdk2/cyclinE; 115 nM on cdk2/cyclinA; 59.5 nM against cdc2/cyclinB.

On to `CCC(C)n1c(=O)ccc2cnc(Nc3ccc(OC)cc3)nc21` (stereo not drawn) [Example 455, 8-sec-Butyl-2-(4-methoxy-phenylamino)-8H-pyrido[2,3-d]pyrimidin-7-one], for which the IC50 at cdk4/D came out at 110 nM; against Cdk5/p25 it was 50.5 nM; against cdk2/cyclinE, 463 nM; against cdk2/cyclinA it was 170 nM; at cdc2/cyclinB, 98.5 nM.

For `CCC(C)n1c(=O)ccc2cnc(Nc3ccc(Cl)c(C)c3)nc21` (stereo not drawn) [Example 456, 8-sec-Butyl-2-(4-chloro-3-methyl-phenylamino)-8H-pyrido[2,3-d]pyrimidin-7-one], the IC50 on cdk4/D was 130 nM; against Cdk5/p25 it was 25 nM; at cdk2/cyclinE, 110 nM; against cdk2/cyclinA, 310 nM; on cdc2/cyclinB, 130 nM.

As for `CCC(C)n1c(=O)ccc2cnc(Nc3cc(OC)c(OC)c(OC)c3)nc21` (stereo not drawn) [Example 457, 8-sec-Butyl-2-(3,4,5-trimethoxy-phenylamino)-8H-pyrido[2,3-d]pyrimidin-7-one], the IC50 was 2400 nM at cdk4/D; 280 nM against Cdk5/p25; 250 nM against cdk2/cyclinE; 760 nM against cdk2/cyclinA; 340 nM against cdc2/cyclinB.

As for `CCC(C)n1c(=O)ccc2cnc(Nc3ccc(F)c(C(F)(F)F)c3)nc21` (stereo not drawn) [Example 458, 8-sec-Butyl-2-(4-fluoro-3-trifluoromethyl-phenylamino)-8H-pyrido[2,3-d]pyrimidin-7-one], the IC50 amounted to 1700 nM at cdk4/D; 29 nM at Cdk5/p25; 100 nM against cdk2/cyclinE; 280 nM against cdk2/cyclinA; 150 nM against cdc2/cyclinB.

Regarding `CCC(C)n1c(=O)ccc2cnc(Nc3cc([N+](=O)[O-])ccc3F)nc21` (stereo not drawn) [Example 459, 8-sec-Butyl-2-(2-fluoro-5-nitro-phenylamino)-8H-pyrido[2,3-d]pyrimidin-7-one], the IC50 is 216 nM at cdk4/D; 196 nM against Cdk5/p25; 316 nM against cdk2/cyclinE; 1200 nM at cdk2/cyclinA; 491 nM at cdc2/cyclinB.

For the compound `CCC(C)n1c(=O)ccc2cnc(Nc3ccc(F)c(Cl)c3)nc21` (stereo not drawn) [Example 460, 8-sec-Butyl-2-(3-chloro-4-fluoro-phenylamino)-8H-pyrido[2,3-d]pyrimidin-7-one], the IC50 at cdk4/D came to 160 nM; at Cdk5/p25, 36 nM; at cdk2/cyclinE, 73 nM; against cdk2/cyclinA, 260 nM; at cdc2/cyclinB, 140 nM.

On to `CCC(C)n1c(=O)ccc2cnc(Nc3cc(Cl)c(Cl)c(Cl)c3)nc21` (stereo not drawn) [Example 461, 8-sec-Butyl-2-(3,4,5-trichloro-phenylamino)-8H-pyrido[2,3-d]pyrimidin-7-one], for which the IC50 on cdk4/D is 550 nM; at Cdk5/p25, 82 nM; on cdk2/cyclinE, 780 nM; on cdk2/cyclinA, 1800 nM; against cdc2/cyclinB, 460 nM.

With `CCC(C)n1c(=O)ccc2cnc(Nc3cc(OC)cc(C(F)(F)F)c3)nc21` (stereo not drawn) [Example 463, 8-sec-Butyl-2-(3-methoxy-5-trifluoromethyl-phenylamino)-8H-pyrido[2,3-d]pyrimidin-7-one], the IC50 at cdk4/D is 250 nM; on Cdk5/p25, 180 nM; at cdk2/cyclinE it was 660 nM; at cdk2/cyclinA, 2000 nM; against cdc2/cyclinB, 300 nM.

With `CCC(C)n1c(=O)ccc2cnc(Nc3ccc(I)c(Cl)c3)nc21` (stereo not drawn) [Example 464, 8-sec-Butyl-2-(3-chloro-4-iodo-phenylamino)-8H-pyrido[2,3-d]pyrimidin-7-one], the IC50 at cdk4/D was determined as 150 nM; against Cdk5/p25, 17 nM; against cdk2/cyclinE, 130 nM; against cdk2/cyclinA, 310 nM; at cdc2/cyclinB it was 170 nM.

For the compound `CCC(C)n1c(=O)ccc2cnc(Nc3ccc(C)c(I)c3)nc21` (stereo not drawn) [Example 465], the IC50 at cdk4/D was found to be 100 nM; against Cdk5/p25, 8.8 nM; on cdk2/cyclinE, 56 nM; against cdk2/cyclinA, 260 nM; on cdc2/cyclinB, 76 nM.
